Common to all, as to assay: cAMP inhibition assay (ALPHAScreen), transfected CHO-K1
Type in all cases: cell-based
(In Alpha technology, singlet oxygen from a donor bead excites a nearby acceptor bead.)

For test [1], the target named is T1, human HCA2 (Homo sapiens, UniProt Q8TDS4).
T1 construct: gene HCAR2; full-length, N-terminal HA and C-terminal FLAG tag, pcDps, transient in CHO-K1
Particulars: read-out: HCA3 / Basal cAMP (% of mock-transfected). From the text:
cAMP inhibition assay (ALPHAScreen), transfected CHO-K1 on human HCA2

Test [2] concerns the target T2, mouse HCA2 (Mus musculus, UniProt Q9EP66).
T2 construct: gene Hcar2; full-length, N-terminal HA and C-terminal FLAG tag, CHO-K1
From the text: cAMP inhibition assay (ALPHAScreen), transfected CHO-K1 on mouse HCA2

Test [3] concerns the target T3, orangutan HCA2 (Pongo abelii, UniProt A0A8I5YUU0).
T3 construct: gene HCAR2; full-length, HA/FLAG tags, CHO-K1
From the text: cAMP inhibition assay (ALPHAScreen), transfected CHO-K1 on orangutan HCA2

The target of test [4] is T4, chimpanzee HCA3 (Pan troglodytes, UniProt A0A2J8MD62).
T4 construct: gene HCAR3; full-length, HA/FLAG tags, CHO-K1
The conditions noted are these: agonist; 2 μM forskolin; HBSS. From the text: cAMP inhibition assay (ALPHAScreen), transfected CHO-K1 on chimpanzee HCA3

The target in test [5] is T5, human HCA3 (Homo sapiens, UniProt P49019).
T5 construct: gene HCAR3; full-length, N-terminal HA and C-terminal FLAG tag, pcDps, transient in CHO-K1
The conditions noted are these: read-out: EC50 (μM) (95% CI). An excerpt: cAMP inhibition assay (ALPHAScreen), transfected CHO-K1 on human HCA3

Test [6] concerns the target T6, siamang HCA3 (Symphalangus syndactylus, UniProt Z9POU2MJD9).
T6 construct: full-length, HA/FLAG tags, CHO-K1
Particulars: read-out: EC50 (μM) (95% CI). From the text: cAMP inhibition assay (ALPHAScreen), transfected CHO-K1 on siamang HCA3

The target of test [7] is T7, orangutan HCA3 (Pongo pygmaeus, UniProt A0A4Y1JWR4).
T7 construct: gene HCAR3; full-length, HA/FLAG tags, CHO-K1
Particulars: read-out: EC50 (μM) (95% CI). From the text: cAMP inhibition assay (ALPHAScreen), transfected CHO-K1 on orangutan HCA3

Test [8] deals with T8, gorilla HCA1 (Gorilla gorilla, UniProt A0A2I2YNR0).
T8 construct: gene HCAR1; full-length, HA/FLAG tags, CHO-K1
An excerpt:
cAMP inhibition assay (ALPHAScreen), transfected CHO-K1 on gorilla HCA1

Test [9] concerns the target T9, mouse HCA1 (Mus musculus, UniProt Q8C131).
T9 construct: gene Hcar1; full-length, N-terminal HA and C-terminal FLAG tag, CHO-K1
T9 sequence (Q8C131 1-343): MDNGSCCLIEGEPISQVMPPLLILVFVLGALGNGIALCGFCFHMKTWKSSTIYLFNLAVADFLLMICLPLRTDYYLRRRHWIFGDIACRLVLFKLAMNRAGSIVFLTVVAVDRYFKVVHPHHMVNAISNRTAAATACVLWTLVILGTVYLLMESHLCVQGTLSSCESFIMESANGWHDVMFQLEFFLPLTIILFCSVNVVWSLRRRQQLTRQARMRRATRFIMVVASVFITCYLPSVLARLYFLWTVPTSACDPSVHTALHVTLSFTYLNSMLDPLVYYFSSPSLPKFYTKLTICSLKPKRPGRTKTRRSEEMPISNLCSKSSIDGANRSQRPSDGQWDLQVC
From the text: cAMP inhibition assay (ALPHAScreen), transfected CHO-K1 on mouse HCA1

In test [10] the target is T10, chimpanzee HCA1 (Pan troglodytes, UniProt A0A2I3T0E0).
T10 construct: gene HCAR1; full-length, HA/FLAG tags, CHO-K1
An excerpt: cAMP inhibition assay (ALPHAScreen), transfected CHO-K1 on chimpanzee HCA1

Test [11] addresses T11, human HCA1 (Homo sapiens, UniProt Q9BXC0).
T11 construct: gene HCAR1; full-length, N-terminal HA and C-terminal FLAG tag, pcDps, transient in CHO-K1
The conditions noted are these: read-out: HCA2 / Basal cAMP (% of mock-transfected). An excerpt: cAMP inhibition assay (ALPHAScreen), transfected CHO-K1 on human HCA1

T10 sequence (A0A2I3T0E0 1-346): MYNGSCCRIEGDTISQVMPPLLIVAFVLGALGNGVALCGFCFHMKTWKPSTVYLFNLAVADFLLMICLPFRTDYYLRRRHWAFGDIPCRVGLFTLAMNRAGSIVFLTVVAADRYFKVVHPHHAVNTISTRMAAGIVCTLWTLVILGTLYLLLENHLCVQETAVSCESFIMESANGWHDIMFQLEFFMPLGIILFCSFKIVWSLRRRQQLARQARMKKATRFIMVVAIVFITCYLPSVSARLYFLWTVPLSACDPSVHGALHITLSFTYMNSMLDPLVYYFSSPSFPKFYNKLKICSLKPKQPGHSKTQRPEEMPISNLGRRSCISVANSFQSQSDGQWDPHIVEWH
T7 sequence (A0A4Y1JWR4 1-363): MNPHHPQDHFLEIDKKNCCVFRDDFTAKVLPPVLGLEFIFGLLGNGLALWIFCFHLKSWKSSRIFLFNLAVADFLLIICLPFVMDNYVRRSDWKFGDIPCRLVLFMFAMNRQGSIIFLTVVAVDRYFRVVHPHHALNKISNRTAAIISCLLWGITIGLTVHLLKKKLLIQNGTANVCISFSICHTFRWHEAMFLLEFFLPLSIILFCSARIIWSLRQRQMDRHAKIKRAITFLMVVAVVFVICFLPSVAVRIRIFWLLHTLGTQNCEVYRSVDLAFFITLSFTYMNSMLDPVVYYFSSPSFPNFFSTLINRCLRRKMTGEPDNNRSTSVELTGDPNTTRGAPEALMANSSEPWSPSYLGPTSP
T8 sequence (A0A2I2YNR0 1-346): as the sequence (A0A2I3T0E0 1-346) above, with I23V, L249S counted along it
T11 sequence (Q9BXC0 whole entry): as the sequence (A0A2I3T0E0 1-346) above, with M131V, T141A, L148V, L249S counted along it
T3 sequence (A0A8I5YUU0 1-363): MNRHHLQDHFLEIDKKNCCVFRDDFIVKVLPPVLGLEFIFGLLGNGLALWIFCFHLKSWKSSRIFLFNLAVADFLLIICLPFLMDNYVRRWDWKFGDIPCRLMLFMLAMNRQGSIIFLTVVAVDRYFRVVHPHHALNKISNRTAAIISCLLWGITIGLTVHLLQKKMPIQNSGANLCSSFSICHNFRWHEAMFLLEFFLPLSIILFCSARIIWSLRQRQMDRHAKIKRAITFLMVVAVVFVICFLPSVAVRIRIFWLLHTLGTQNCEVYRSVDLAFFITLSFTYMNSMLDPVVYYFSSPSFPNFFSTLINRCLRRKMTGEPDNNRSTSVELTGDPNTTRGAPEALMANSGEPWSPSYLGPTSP
T1 sequence (Q8TDS4 whole entry): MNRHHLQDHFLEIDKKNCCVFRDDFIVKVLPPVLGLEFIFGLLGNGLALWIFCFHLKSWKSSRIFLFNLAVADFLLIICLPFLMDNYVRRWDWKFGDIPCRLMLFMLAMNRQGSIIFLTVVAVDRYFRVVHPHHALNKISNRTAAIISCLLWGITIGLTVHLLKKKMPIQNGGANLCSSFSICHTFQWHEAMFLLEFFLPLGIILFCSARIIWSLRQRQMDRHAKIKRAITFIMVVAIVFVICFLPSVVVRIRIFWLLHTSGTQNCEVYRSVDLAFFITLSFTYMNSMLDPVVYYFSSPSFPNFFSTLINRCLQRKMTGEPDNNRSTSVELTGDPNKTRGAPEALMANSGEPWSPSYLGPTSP
T2 sequence (Q9EP66 whole entry): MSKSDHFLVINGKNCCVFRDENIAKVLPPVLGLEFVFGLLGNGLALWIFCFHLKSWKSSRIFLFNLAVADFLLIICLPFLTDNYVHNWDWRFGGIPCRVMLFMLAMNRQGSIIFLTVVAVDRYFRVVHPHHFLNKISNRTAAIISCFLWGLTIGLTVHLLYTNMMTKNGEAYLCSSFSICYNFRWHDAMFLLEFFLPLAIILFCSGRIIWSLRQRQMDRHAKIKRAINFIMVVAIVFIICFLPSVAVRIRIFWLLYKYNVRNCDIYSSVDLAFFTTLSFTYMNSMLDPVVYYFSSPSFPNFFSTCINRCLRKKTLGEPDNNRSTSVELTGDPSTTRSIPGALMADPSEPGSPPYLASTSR
T5 sequence (P49019 whole entry): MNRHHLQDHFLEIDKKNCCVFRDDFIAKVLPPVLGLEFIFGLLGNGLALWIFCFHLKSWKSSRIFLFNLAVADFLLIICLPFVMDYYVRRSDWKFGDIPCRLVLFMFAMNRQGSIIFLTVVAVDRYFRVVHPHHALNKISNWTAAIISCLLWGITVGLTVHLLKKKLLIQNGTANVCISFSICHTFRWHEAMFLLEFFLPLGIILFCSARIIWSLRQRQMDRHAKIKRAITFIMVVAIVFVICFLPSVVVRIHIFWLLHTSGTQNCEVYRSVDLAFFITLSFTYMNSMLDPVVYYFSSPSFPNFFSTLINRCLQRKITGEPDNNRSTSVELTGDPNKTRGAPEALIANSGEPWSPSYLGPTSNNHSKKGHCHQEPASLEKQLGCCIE

Regarding `C[C@@H](O)CC(=O)O` [D-3HB], the EC50 in test [1] was 530 µM; in test [2], 1030 µM; in test [3] it was 680 µM.
`O=C(O)[C@H](O)Cc1ccccc1` [D-PLA]: the “EC50 (μM) (95% CI)” value in [4] is given as 0.13 (0.08–0. 22) μM. For the same molecule, the EC50 in test [5] came out at 0.15 µM; in test [6] it was 0.28 µM; in [7] it was 1.2 µM.
For `C[C@H](O)C(=O)O` [L-lactate], the EC50 in test [8] came to 2300 µM; in test [9], 2900 µM; in test [10] it was 4100 µM; in test [11], 2400 µM.

For the origin of these results see publication PMC6532841 (PLoS Genetics, 2019).
